Legend:
[1] = HPLC lipophilicity on IAM (immobilized artificial membrane, phosphatidylcholine) stationary phase; assay type: physicochemical; details: pH 7.4; for Log k IAM: Table S2; for log kw IAM: intercept, linear extrapolation to water; for log kw IAM / -S IAM: ACN/20 mM phosphate buffer; for -S IAM: slope of Soczewiński–Wachtmeister equation
Protocol: (§1) For the evaluation of the compounds the following stationary phases were used: C-18; biomimetic, IAM; cholesterol (Chol); immobilized proteins HSA and AGP. For the lipophilicity determination, MeOH (C-18, Chol) or ACN (IAM) were applied as the organic modifiers. The measurements were performed at pH 7.4 of the mobile phase. The regular changes in the retention of all solutes used as organic modifier content in the mobile phase on three studied stationary phases were found. It is expressed by the Soczewiński–Wachtmeister Equation (1):log k = log kw + S (% organic modifier)(1) where log kw—the intercept; S—the slope of regression curve. […] Log kw as well as S parameters are commonly applied as lipophilicity descriptors.
(§2) HPLC measurements were performed using a liquid chromatograph Knauer (Knauer, Berlin, Germany) with a dual pump, a 20 µL simple injection valve, and a UV–visible detector. The compounds were detected under UV light at 280 nm at room temperature. The retention time of an unretained solute (t0) was determined by the injection of a small amount of citric acid dissolved in water.
A Rexchrom IAM.PC.DD2 (12 μm, 100 × 4.6 mm, 300 Å) (Regis Technologies, Morton Grove, IL, USA) column was used as the stationary phase. The compounds were dissolved at a concentration of 0.5 mg × mL^−1 in MeOH. The mobile phases consisted of different volume fractions of ACN and 20 mM phosphate buffer; the aqueous phase maintained a pH = 7.4 (0.02 M KH2PO4, Na2HPO4 and 0.15 M KCl). The acetonitrile concentration ranged from 0.05 to 0.4 (v/v), depending on the structure of compound, at 0.05 intervals (Table S2 in the Supplementary Materials). The flow rate was 1 mL × min^−1.

[2] = HPLC lipophilicity on cholesterol (Chol) stationary phase; assay type: physicochemical; details: pH 7.4; for Log k Chol: Table S3; for log kw Chol: intercept, linear extrapolation to water; for log kw Chol / -S Chol: MeOH/20 mM acetate buffer; for -S Chol: slope of Soczewiński–Wachtmeister equation
Protocol: as §1, §2
Cogent 4 UDC Cholesterol (150 × 2.1 mm, 4 µm) MicroSolv Technology Corporation (Leland, NC, USA) column was used. The mobile phase consisted of different volume mixtures of MeOH as the organic modifier and 20 mM acetate buffer as the aqueous phase, to obtain pH = 7.4. The concentrations of the organic modifier were in the range from 0.3 to 0.8 (v/v) with step 0.05 or 0.1 (Table S3 in the Supplementary Materials). The flow rate was 0.35 mL × min^−1.

[3] = biological target: T1, human serum albumin (HSA) (Homo sapiens, UniProt P02768); test: HPLC on immobilized HSA column, affinity and % plasma–protein binding; assay type: in vitro ADME; details: for log K HSA: binding equilibrium constant from calibration curve (Equation 8) of log k HSA; for fraction unbound: human, pH 7.4, % plasma–protein binding converted from log K HSA (Equation 10), read-out: %PPB HSA (converted); for log k HSA: retention on HSA column, 50 mM ammonium acetate pH 7.4 / propan-2-ol 85/15 (v/v)
T1 construct: purchased Chiralpac
Protocol: (§3) Measurements on HSA and AGP immobilized protein columns were carried out with […] isopropanol content in the aqueous mobile phase.
(§4) The standard calibration curve was used to predict log K values (K—binding equilibrium constant) of investigated compounds to HSA and AGP. Next, the log K values were converted into a percentage of plasma–protein binding (%PPB) of the compounds (Table 2). […] It is the lowest for compound 16 with -NO2 substituent, unsubstituted compound 1, and fluorine derivatives 2 and 9. In a group of […] derivatives in the same position of the phenyl ring, the %PPB to AGP increases with the increase in the atomic weight of the halogen atom and the lipophilicity of the molecule.
as §2
(§5) A human serum albumin (HSA) immobilized on the 5 µm silica gel column 100 × 3 mm (Chiralpac) and an α1-acid glycoprotein (AGP) immobilized on the 5 µm silica gel column 100 × 4 mm (Chiralpac) were used. The compounds were dissolved at 0.5 mg/mL concentration in 50% propan-2-ol and ammonium acetate solution (pH = 7.4) mixtures for HSA measurements. The mobile phase was composed of 50 mM ammonium acetate solution (pH = 7.4) and propan-2-ol at 85/15 (v/v) for AGP, respectively. The flow of mobile phases was 0.5 mL×min^−1. Log k values for the selected mobile phase were determined for all studied compounds and standard substances. The % protein plasma binding (% PPB) values were calculated from the calibration curve according to Valko et al..
(§6) Calibration of the protein columns: The column performance check and the calibration check were performed before measurements. The racemic mixture of warfarin was used for their performance evaluation. The following calibration set of drugs was applied: bromazepam, carbamazepine, diclofenac, nicardipine, nizatidine, piroxicam for HSA and bromazepam, chlorpromazine, imipramine, nicardipine, nizatidine, propranolol, and warfarin for AGP. The analytical standards were purchased from Sigma Aldrich Steinhen, Steinheim am Albuch, Germany). The drugs were dissolved at 0.5 mg/mL concentration in 50% propan-2-ol and ammonium acetate solution mixtures (pH = 7.4). The obtained log k values from HPLC were plotted against the log K values (K—binding equilibrium constant, log K—linearized PPB) based on the literature data for plasma–protein binding (%, PPB). The following relationships were obtained: log KHSA = 0.2513 (±0.0984) + 1.0525 (±0.1171) log k HSA(8) n=6, R=0.9761, R^2 = 0.9528, Radj2 = 0.9410, s = 0.1948 log KAGP = 0.1733 (±0.0574) + 0.8902 (±0.0787) log k AGP(9) n=7, R=0.9810, R^2 = 0.9623, Radj2 = 0.9548, s = 0.1113
(§7) Log K values were converted into %PPB using the following equation [15]:(10) %PPB=101×10^logK/1+10^logK

[4] = tested on: α1-acid glycoprotein (AGP); test: HPLC on immobilized AGP column, affinity and % plasma–protein binding; assay type: in vitro ADME, human; details: for log K AGP: binding equilibrium constant from calibration curve (Equation 9) of log k AGP; for fraction unbound: human, pH 7.4, % plasma–protein binding converted from log K AGP (Equation 10), read-out: %PPB AGP (converted); for log k AGP: retention on AGP column, 50 mM ammonium acetate pH 7.4 / propan-2-ol 85/15 (v/v)
Protocol: as §3, §4, §2, §5, §6, §7

[5] = design: method as in Kozyra et al. [31]; details: MeOH/20 mM acetate buffer, pH 7.4, ref Kozyra et al. [31], cited from earlier work; for log kw C-18: intercept of Soczewiński–Wachtmeister equation (water as mobile phase); for -S C-18: slope of Soczewiński–Wachtmeister equation

T1 sequence (P02768 25-609): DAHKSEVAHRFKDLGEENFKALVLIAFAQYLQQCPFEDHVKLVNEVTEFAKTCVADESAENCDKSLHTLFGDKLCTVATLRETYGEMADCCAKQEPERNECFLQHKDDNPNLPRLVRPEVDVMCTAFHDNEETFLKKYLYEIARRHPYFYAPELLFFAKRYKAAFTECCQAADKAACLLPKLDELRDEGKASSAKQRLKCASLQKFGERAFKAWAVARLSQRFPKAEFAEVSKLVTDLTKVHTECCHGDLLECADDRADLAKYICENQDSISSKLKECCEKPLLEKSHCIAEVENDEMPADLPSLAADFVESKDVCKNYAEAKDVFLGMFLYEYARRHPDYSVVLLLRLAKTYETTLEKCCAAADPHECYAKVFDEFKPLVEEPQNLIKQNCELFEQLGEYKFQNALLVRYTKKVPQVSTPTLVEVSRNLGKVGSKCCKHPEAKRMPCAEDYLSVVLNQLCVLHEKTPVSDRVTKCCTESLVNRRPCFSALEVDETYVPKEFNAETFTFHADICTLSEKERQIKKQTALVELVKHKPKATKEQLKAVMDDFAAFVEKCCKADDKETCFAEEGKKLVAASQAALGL

| Structure (SMILES) | Log k IAM ([1]; ACN 0.15 v/v in mobile phase) | Log k IAM ([1]; ACN 0.20 v/v in mobile phase) | Log k IAM ([1]; ACN 0.25 v/v in mobile phase) | Log k IAM ([1]; ACN 0.30 v/v in mobile phase) | Log k IAM ([1]; ACN 0.35 v/v in mobile phase) | -S IAM [1] | Log k Chol ([2]; MeOH 0.40 v/v in mobile phase) | Log k Chol ([2]; MeOH 0.45 v/v in mobile phase) | Log k Chol ([2]; MeOH 0.50 v/v in mobile phase) | Log k Chol ([2]; MeOH 0.60 v/v in mobile phase) | Log k Chol ([2]; MeOH 0.80 v/v in mobile phase) | log kw Chol [2] | -S Chol [2] | log K HSA [3] | log k HSA [3] | log K AGP [4] | fraction unbound [4] | log k AGP [4] | log kw C-18 [5] | -S C-18 [5] | other results |
| --- | --- | --- | --- | --- | --- | --- | --- | --- | --- | --- | --- | --- | --- | --- | --- | --- | --- | --- | --- | --- | --- |
| O=C(COc1ccccc1)NNC(=S)Nc1cccc(Cl)c1 [Compound 6] | 0.982 | 0.647 | 0.333 | -0.082 | -0.247 | 6.3395 | 1.016 | 0.766 | 0.422 | 0.160 | -0.975 | 2.9670 | 4.8849 | 1.3217 | 1.0170 | 0.6152 | 0.187 | 0.4964 | 2.7672 | 4.8532 | Log k IAM ([1]; ACN 0.10 v/v in mobile phase): 1.270; log kw IAM [1]: 1.9101; Log k Chol ([2]; MeOH 0.35 v/v in mobile phase): 1.270; fraction unbound [3]: 0.036 |
| O=C(COc1ccccc1)NNC(=S)Nc1cccc(Br)c1 [Compound 7] | 1.120 | 0.777 | 0.413 | -0.038 | -0.196 | 6.8947 | 1.284 | 0.913 | 0.720 | 0.347 | -0.987 | 3.4508 | 5.4314 | 2.2501 | 1.8991 | 0.6968 | 0.159 | 0.5881 | 2.8451 | 4.8454 | log kw IAM [1]: 2.1389; Log k Chol ([2]; MeOH 0.70 v/v in mobile phase): -0.309 |
| O=C(COc1ccccc1)NNC(=S)Nc1ccc(Cl)cc1Cl [Compound 13] | 1.240 | 0.870 | 0.557 | 0.067 | -0.103 | 6.2034 | 1.246 | 0.978 | 0.627 | 0.400 | -1.016 | 3.4517 | 5.4505 | 1.6879 | 1.3649 | 0.5886 | 0.197 | 0.4665 | 3.2152 | 5.1803 | Log k IAM ([1]; ACN 0.40 v/v in mobile phase): -0.430; Log k Chol ([2]; MeOH 0.70 v/v in mobile phase): -0.329; fraction unbound [3]: 0.01 |
| O=C(COc1ccccc1)NNC(=S)Nc1ccc(Cl)cc1 [Compound 10] | 1.009 | 0.673 | 0.368 | -0.038 | -0.210 | 6.0976 | 1.050 | 0.836 | 0.479 | 0.206 | -0.946 | 2.9842 | 4.8387 | 1.9333 | 1.5981 | 0.5075 | 0.23 | 0.3754 | 2.5914 | 4.5132 | Log k IAM ([1]; ACN 0.10 v/v in mobile phase): 1.235; log kw IAM [1]: 1.8779; Log k Chol ([2]; MeOH 0.30 v/v in mobile phase): 1.475; Log k Chol ([2]; MeOH 0.35 v/v in mobile phase): 1.331; Log k Chol ([2]; MeOH 0.70 v/v in mobile phase): -0.396; fraction unbound [3]: 0.002 |
